Data set [1] relates to Asexual parasites of P. falciparum strain 3D7. The data set is described as follows: In vitro drug activity on asexual parasites (SYBR Green assay). In kind it is cell-based, Plasmodium falciparum. On the procedure: Cell culture. Asexual parasites of P. falciparum strain 3D7 were cultured as described previously [Trager W, et al., Journal of Parasitology 2005, 91: 484-486], Stage III-V gametocytes were selected and enriched with 3-day treatment with 50 mM N-acetylglucosamine (NAG) and the following Percoll density gradient centrifugation after gametocyte production [Tanaka T Q, et al., Molecular and Biochemical Parasitology, 2011, 111: 160-163], Gametocytes of HB3 and Dd2 strains were produced and then set up for assay in a similar process. HepG2 cells (ATCC, cat. no. 77400) were cultured in 175-cm^2 tissue culture flasks with 30 ml growth medium at 37° C. in a 5% CO2 humidified atmosphere. Growth medium was made with Dulbecco's Modified Eagle Medium with 10% fetal bovine serum (FBS). Growth medium was replaced every other day and cells were passed at 75% confluence.
Asexual parasites of P. falciparum strain 3D7 were cultured as described previously (Trager, W. et al., J. Parasitol. 2005, 91(3): 484-486). Drug activity on asexual stage parasites was tested using a SYBR Green assay as described previously (Eastman, R. T. et al., Antimicrob. Agents Chemother. 2013, 57(1): 425-435; Smilkstein, M. et al., Antimicrob. Agents Chemother. 2004, 48(5): 1803-1806). Briefly, parasites were diluted to 0.5% parasitemia in complete culture medium with 2% hematocrit and drugs diluted in DMSO (≤0.5%) and were loaded into a 96-well plate (200 μl/well). No drug and RBC alone wells were included as positive and background controls, respectively, and each testing condition was examined in duplicated. After 72 h incubation under the standard culture condition and a freeze-thaw lysis step at −80° C. and room temperature, 100 μl/well of lysis buffer containing SYBR Green I was added to the parasite culture and incubated for 30 min at room temperature. The fluorescence of each well was measured at 520 nm following excitation at 490 nm using a FLUOstar Optima™ microplate reader (BMG Labtech).

In a further data set the target is mTOR (Homo sapiens, UniProt P42345). The data set can be described thus: mTOR activity (no method described). In kind it is biochemical.
The next data set can be described thus: Solubility at pH 7.4. In kind it is physicochemical.
A short description of data set [2]: Microsomal stability (rat). Format: in vitro ADME. The conditions noted are these: rat microsomes.
The mark [3] stands for this setting: P. falciparum 3D7 asexual parasites, 72 h, SYBR Green.

Structures are written as SMILES. Where two headings read alike, the source gives them in different places.

Turning to `CC(=O)N1CCN(c2cc(C)c(-n3c(=O)n(C)c4cnc5ccc(-c6cccc(C#N)c6)cc5c43)cc2C#N)CC1` [Compound 423], the concentration giving a half-maximal response (EC50) in data set [1] is 0.0504 µM. This molecule also had a mTOR on mTOR of 15.4 µM.
The like results for `O=C(NCCN1CCCC1=O)c1ccc(-n2c(=O)ccc3cnc4ccc(-c5ccc(Cl)cc5)cc4c32)cc1` [Compound 309] were, in that order, 0.554 µM and 3.824 µM.
As to `O=C(NC1CC1)c1ccc(-n2c(=O)ccc3cnc4ccc(-c5ccc(Cl)cc5)cc4c32)cn1` [Compound 315], the half-maximal effective concentration (EC50) in data set [1] was determined as 0.137 µM. Besides, the mTOR at mTOR worked out at 100 µM.
`CN1CCN(Cc2ccc(-c3ccc4ncc5ccc(=O)n(-c6ccc(C(=O)NC7CC7)cc6)c5c4c3)cc2)CC1` [Compound 307] yielded a concentration giving a half-maximal response (EC50) in data set [1] of 0.191 µM. This molecule also registered a mTOR at mTOR of 39.9 µM.
As to `O=C(NCCCN1CCCC1)c1ccc(-n2c(=O)ccc3cnc4ccc(-c5ccc(F)cc5)cc4c32)cc1` [Compound 267], the “Sol @ pH 7.4” value in “Solubility at pH 7.4” amounted to 0 ug/mL. The EC50 in data set [1] was found to be 0.0582 µM. Besides, the “Microsomal Stability (rat) T1/2” value in data set [2] is given as 8 min. Besides, the mTOR on mTOR was found to be 3.878 µM.
With `Cc1ccc(C#N)cc1-n1c(=O)n(C)c2cnc3ccc(-c4ccsc4)cc3c21` [Compound 424], in data set [1], the concentration giving a half-maximal response (EC50) turned out to be 0.023 µM. The same molecule showed a mTOR at mTOR of 12.51 µM.
Take `COc1cc(C(=O)NCCCN2CCS(=O)(=O)CC2)ccc1-n1c(=O)ccc2cnc3ccc(-c4ccc(Cl)cc4)cc3c21` [Compound 226]: the EC50 in data set [1] is 0.208 µM. In addition, the mTOR at mTOR came out at 8.446 µM.
For the molecule `CCC(=O)N(C)CCNC(=O)c1ccc(-n2c(=O)ccc3cnc4ccc(-c5ccc(Cl)cc5)cc4c32)cc1` [Compound 310], the concentration for a half-maximal effect (EC50) in data set [1] was found to be 0.414 µM. The molecule further displayed a mTOR at mTOR of 3.373 µM.
As for `O=C(NCCN1CCOCC1)c1ccc(-n2c(=O)ccc3cnc4ccc(-c5ccc(F)cc5)cc4c32)cc1` [Compound 268], the “Sol @ pH 7.4” value in “Solubility at pH 7.4” came to 0 ug/mL. Moreover, the EC50 in data set [1] was 0.211 µM. The “Microsomal Stability (rat) T1/2” value in data set [2] amounted to 2 min. Moreover, the mTOR on mTOR is 4.985 µM.
In turn, `CC(C)(O)CNC(=O)c1ccc(-n2c(=O)ccc3cnc4ccc(-c5ccc(Cl)cc5)cc4c32)cc1` [Compound 311] gave an EC50 in data set [1] of 0.0533 µM. The same molecule had a mTOR at mTOR of 0.1982 µM.
The like results for `Cc1cc(N2CCNCC2)c(C#N)cc1-n1c(=O)n(C)c2cnc3ccc(-c4cccs4)cc3c21` [Compound 421] were, in that order, 0.0189 µM and 18.94 µM.
`Cc1ccc(C#N)cc1-n1c(=O)n(C)c2cnc3ccc(-c4cccc(S(N)(=O)=O)c4)cc3c21` [Compound 433]: the EC50 in data set [1] came out at 0.0171 µM. At mTOR, the mTOR was 6.1 µM.
Regarding `CN1CCN(CCNC(=O)c2ccc(-n3c(=O)ccc4cnc5ccc(-c6ccc(Cl)cc6)cc5c43)cc2)CC1` [Compound 264], the “Sol @ pH 7.4” value in “Solubility at pH 7.4” is listed as 0 ug/mL. In addition, in data set [1], the EC50 was 0.0566 µM. In data set [2], the “Microsomal Stability (rat) T1/2” value turned out to be 4.5 min. In addition, the mTOR on mTOR was 1.321 µM.
`COc1cc(C(=O)NCCCN2CCCCC2)ccc1-n1c(=O)ccc2cnc3ccc(-c4ccc(Cl)cc4)cc3c21` [Compound 229] displayed a 50% effective concentration (EC50) in data set [1] of 0.232 µM. Besides, the mTOR at mTOR is 19.25 µM.
Regarding `N#CC1(NC(=O)c2ccc(-n3c(=O)ccc4cnc5ccc(-c6ccc(Cl)cc6)cc5c43)cc2)CC1` [Compound 304], it took 0.0192 µM to reach a half-maximal effect in data set [1] (EC50). At mTOR, this molecule displayed a mTOR of 0.8535 µM.
`Cc1ccc(C#N)cc1-n1c(=O)n(C)c2cnc3ccc(-c4cccn4C)cc3c21` [Compound 420]: the EC50 in data set [1] came to 0.144 µM. At mTOR, this molecule registered a mTOR of 30.22 µM.
Take `O=C(NC1CC1)c1ccc(-n2c(=O)ccc3cnc4ccc(-c5ccc(Cl)c(F)c5)cc4c32)cc1` [Compound 308]: the half-maximal effective concentration (EC50) in data set [1] was 0.0236 µM. For the same molecule, the mTOR on mTOR is 2.099 µM.
As to `Cc1cc(C(=O)NCCN2CCNCC2)ccc1-n1c(=O)ccc2cnc3ccc(-c4ccc(Cl)cc4)cc3c21` [Compound 313], in data set [1], the EC50 came to 0.039 µM. At mTOR, this molecule came in with a mTOR of 1.429 µM.
In the case of `Nc1nc2ccc(-c3ccc(Cl)cc3)cc2c2c1ccc(=O)n2-c1ccc(C(=O)N2CCOCC2)cc1` [Compound 314], the midpoint of the response in data set [1], the EC50, lay at 0.429 µM. At mTOR, this molecule showed a mTOR of 0.78 µM.
For `COc1cc(C(=O)NCCCN(C)C)ccc1-n1c(=O)ccc2cnc3ccc(-c4ccc(Cl)cc4)cc3c21` [Compound 230], in that order: 0.0982 µM and 50 µM.
The like results for `CN(C)CCN(C)C(=O)c1ccc(-n2c(=O)ccc3cnc4ccc(-c5ccc(Cl)cc5)cc4c32)cc1` [Compound 299] were, in that order, 0.0553 µM and 5.83 µM.
`Cc1ccc(C#N)cc1-n1c(=O)n(C)c2cnc3ccc(-c4ccc[nH]4)cc3c21` [Compound 419]: the EC50 in data set [1] is 0.0829 µM. This molecule also had a mTOR at mTOR of 30.38 µM.
For the molecule `Cc1cc(N2CC(N)C2)c(C#N)cc1-n1c(=O)n(C)c2cnc3ccc(-c4ccc(F)cc4)cc3c21` [Compound 428], a half-maximal response in data set [1] (EC50) required 0.0278 µM. At mTOR, the mTOR was 11 µM.
As to `Cc1cc(N2CCNCC2)c(C#N)cc1-n1c(=O)n(C)c2cnc3ccc(-c4ccc(F)c(C#N)c4)cc3c21` [Compound 427], the EC50 in data set [1] was 0.0752 µM. On mTOR, this molecule showed a mTOR of 30.6 µM.
In data set [1], `COc1cc(C(=O)NCCN(C)C)ccc1-n1c(=O)ccc2cnc3ccc(-c4ccc(Cl)cc4)cc3c21` [Compound 317] had an EC50 of 0.202 µM. On mTOR, this molecule registered a mTOR of 8.572 µM.
In data set [1], `Cc1cc(N2CC(N)C2)c(C#N)cc1-n1c(=O)n(C)c2cnc3ccc(-c4cccc(C#N)c4)cc3c21` [Compound 426] registered an EC50 of 0.0294 µM. This molecule came in with a mTOR on mTOR of 6.418 µM.
`COc1cc(C(=O)NCCN2CCN(C)CC2)ccc1-n1c(=O)ccc2cnc3ccc(-c4ccc(Cl)cc4)cc3c21` [Compound 252] showed a mTOR on mTOR of 100 µM.
As for `COc1cc(C(=O)NCCCN(CCO)CCO)ccc1-n1c(=O)ccc2cnc3ccc(-c4ccc(Cl)cc4)cc3c21` [Compound 227], the EC50 in data set [1] was determined as 0.0665 µM. The same molecule had a mTOR on mTOR of 16 µM.
`O=C(NCCC1CCN(C2COC2)CC1)c1ccc(-n2c(=O)ccc3cnc4ccc(-c5ccc(Cl)cc5)cc4c32)cc1` [Compound 306]: the midpoint of the response in data set [1], the EC50, lay at 0.1 µM. On mTOR, this molecule returned a mTOR of 8.864 µM.
Regarding `N#Cc1cc(-n2c(=O)ccc3cnc4ccc(-c5ccc(Cl)cc5)cc4c32)ccc1C(=O)NC1CC1` [Compound 312], in data set [1], the EC50 was determined as 1.85 µM. The molecule further returned a mTOR at mTOR of 500 µM.
In turn, `NC1(c2ccc(-c3ccc4ncc5ccc(=O)n(-c6ccc7c(c6)CNS7(=O)=O)c5c4c3)cc2)CC1` [Compound 383] registered a half-maximal effective concentration (EC50) in data set [1] (setting [3]) of 0.0623 µM. In other words, the double-digit nanomolar range.
`Cc1ccc(C#N)cc1-n1c(=O)n(C)c2cnc3ccc(-c4ccoc4)cc3c21` [Compound 425]: a half-maximal response in data set [1] (EC50) required 0.0484 µM. Moreover, the mTOR on mTOR was 5 µM.
For `CCN(CCN(C)C)C(=O)c1ccc(-n2c(=O)ccc3cnc4ccc(-c5ccc(Cl)cc5)cc4c32)cc1` [Compound 300], in that order: 0.0327 µM and 3.792 µM.
Turning to `Cn1c(=O)n(-c2ccc(N3CCNCC3)c(C#N)c2)c2c3cc(-c4cccc(C#N)c4)ccc3ncc21` [Compound 418], the concentration for a half-maximal effect (EC50) in data set [1] was 0.00793 µM. The molecule further came in with a mTOR at mTOR of 0.7002 µM.
In data set [1], `CCN(CC)CCCNC(=O)c1ccc(-n2c(=O)ccc3cnc4ccc(-c5ccc(Cl)cc5)cc4c32)c(OC)c1` [Compound 228] came in with an EC50 of 0.195 µM. Also, the mTOR at mTOR came out at 11.22 µM.
Turning to `Cc1cc(NCCN(C)C)c(C#N)cc1-n1c(=O)n(C)c2cnc3ccc(-c4cccc(C#N)c4)cc3c21` [Compound 430], the EC50 in data set [1] was found to be 0.0585 µM. The mTOR at mTOR came out at 4.622 µM.
Molecule `O=C1c2ccc(-n3c(=O)ccc4cnc5ccc(-c6ccc(Cl)cc6)cc5c43)cc2C(=O)N1C1CC1` [Compound 384] showed a concentration for a half-maximal effect (EC50) in data set [1] (setting [3]) of 1.32 µM.
As for `CCC(=O)N(CC)CCNC(=O)c1ccc(-n2c(=O)ccc3cnc4ccc(-c5ccc(Cl)cc5)cc4c32)cc1` [Compound 305], in data set [1], the EC50 was 0.483 µM. Besides, the mTOR at mTOR came to 4.727 µM.
For `CC(=O)N1CCN(c2cc(C)c(-n3c(=O)n(C)c4cnc5ccc(-c6ccc(Cl)cc6)cc5c43)cc2C#N)CC1` [Compound 429], in that order: 0.0105 µM and 12.57 µM.
In data set [1], `COc1cc(C(=O)NCCN(C)C)ccc1-n1c(=O)ccc2cnc3ccc(-c4ccc(F)c(O)c4)cc3c21` [Compound 316] had an EC50 of 0.412 µM. This molecule showed a mTOR on mTOR of 8.154 µM.
As for `CC(=O)N1CCN(c2cc(C)c(-n3c(=O)n(C)c4cnc5ccc(-c6ccc(F)cc6)cc5c43)cc2C#N)CC1` [Compound 422], the EC50 in data set [1] amounted to 0.00587 µM. Also, the mTOR on mTOR came to 1.87 µM.
